# Literature values in patent US20150050333A1, “PHARMACEUTICAL COMPOSITION COMPRISING OLMESARTAN MEDOXOMIL AND ROSUVASTATIN OR ITS SALT” (priority 2012, published 2015).
# System: CYP450
Metabolism of olmesartan medoxomil by CYP450 (after in vivo absorption),Portion of rosuvastatin that is metabolized (metabolized mainly by CYP 2C9 and CYP 2C19),Structure (SMILES)
not metabolized by CYP450,–,CCCc1nc(C(C)(C)O)c(C(=O)OCc2oc(=O)oc2C)n1Cc1ccc(-c2ccccc2-c2nnn[nH]2)cc1 [Olmesartan medoxomil]
–,10%,CC(C)c1nc(N(C)S(C)(=O)=O)nc(-c2ccc(F)cc2)c1/C=C/[C@@H](O)C[C@@H](O)CC(=O)O [rosuvastatin]
